Literature values in publication PMC9600270 (Cancers, 2022).
Where “and” joins values, the source holds several entries; their conditions need not be identical. Equal values may be shown once. Bridges are numbered along the chain shown (N, C = ends). Where no end group is shown, it is not given here.

Experiments:
[1] = system: RMS mouse xenografts; parameters: method as in PMID 28447920; settings: TmR-targeted vincristine-loaded liposomes
[2] = system: RMS cells; settings: TmR-targeted vincristine-loaded liposomes
Excerpt: We previously selected RMS-targeting peptides by in vitro and in vivo phage display and tested them for their potential to increase vincristine-loaded liposomes’ accumulation in RMS mouse xenografts. […] We hypothesized that a targeting peptide with a stronger binding to RMS might be needed to achieve increased accumulation in RMS tumors in vivo. Here, we selected from the literature peptides binding to receptors k ... || We previously tested the peptide TmR for its potential to increase vincristine-loaded liposomes’ accumulation in RMS mouse xenografts. […] Here, we aimed at selecting a peptide with stronger binding to RMS cells than TmR, and F3 peptide bound to the four RMS cell lines tested 3- to 5-fold more than TmR peptide. Importantly, F3 pe ...

## KRDRGGGCMGTINTRTRRC (disulfide 8-19 (inferred)) [TmR, Furin-targeting RMS peptide, modified version of RMS-P3]
[1]
  Tumor accumulation in vivo compared to non-targeted liposomes: did not further increase
[2]
  Increase of RMS binding of liposomes in vitro: 5.4 fold and 5 fold
